Results: patent USRE48461E1, “Modulation of androgen receptor expression” (Ionis Pharmaceuticals, Inc., priority 2012, dated 2021)
Oligonucleotides are written 5' to 3', each unit as a sugar letter and its base; * is a phosphorothioate linkage, no mark a phosphodiester; rarer units and linkages stand in square brackets, end groups in braces. Plain capitals give the bases only. k = constrained ethyl (cEt); [5mC] = 5-methylcytosine; d = 2'-deoxy (DNA)

Legend:
[1] = test system: AR mRNA; test: Dose-dependent antisense inhibition of human AR in HuVEC cells (electroporation, qRT-PCR RTS3559, IC50); type: cell-based; conditions: HuVEC, electroporation, approximately 16 hours
Protocol: (§1) After a treatment period of approximately 16 hours, RNA was isolated from the cells and AR mRNA levels were measured by quantitative real-time PCR. Human AR primer probe set RTS3559 was used to measure mRNA levels. AR mRNA levels were adjusted according to total RNA content, as measured by RIBOGREEN®. […] The antisense oligonucleotides were tested in a series of experiments that had similar culture conditions.
as §1, §1, §1, §1
(§2) After a treatment period of approximately 16 hours, RNA was isolated from the cells and AR mRNA levels were measured by quantitative real-time PCR. Human AR primer probe set RTS3559 was used to measure mRNA levels. AR mRNA levels were adjusted according to total RNA content, as measured by RIBOGREEN®.
as §2

[2] = test system: AR mRNA; test: Antisense inhibition of human AR in HuVEC cells, single concentration (electroporation, qRT-PCR RTS3559); type: cell-based
Protocol: Antisense oligonucleotides were designed targeting an AR nucleic acid and were tested for their effects on AR mRNA in vitro. The antisense oligonucleotides were tested in a series of experiments that had similar culture conditions. […] Human primer probe set RTS3559 (forward sequence [NT], designated herein as SEQ ID NO: 9; reverse sequence [NT], designated herein as SEQ ID NO: 10; probe sequence [NT], designated herein as SEQ ID NO: 11) was used to measure mRNA levels. AR mRNA levels were adjusted according to total RNA content, as measured by RIBOGREEN®. […] A total of 155 oligonucleotides were tested. Additional antisense oligonucleotides were designed targeting an AR nucleic acid and were tested for their effects on AR mRNA in vitro. […] Human primer probe set RTS3559 was used to measure mRNA levels. AR mRNA levels were adjusted according to total RNA content, as measured by RIBOGREEN®. […] A total of 82 oligonucleotides were tested. Additional antisense oligonucleotides were designed targeting an AR nucleic acid and were tested for their effects on AR mRNA in vitro. […] Human primer probe set RTS3559 was used to measure mRNA levels. AR mRNA levels were adjusted according to total RNA content, as measured by RIBOGREEN®. […] A total of 40 oligonucleotides were tested. Additional antisense oligonucleotides were designed targeting an AR nucleic acid and were tested for their effects on AR mRNA in vitro. […] Human primer probe set RTS3559 was used to measure mRNA levels. AR mRNA levels were adjusted according to total RNA content, as measured by RIBOGREEN®. […] A total of 75 oligonucleotides were tested. Additional antisense oligonucleotides were designed targeting an AR nucleic acid and were tested for their effects on AR mRNA in vitro. […] Human primer probe set RTS3559 was used to measure mRNA levels. AR mRNA levels were adjusted according to total RNA content, as measured by RIBOGREEN®. […] A total of 616 oligonucleotides were tested. Additional antisense oligonucleotides were designed targeting an AR nucleic acid and were tested for their effects on AR mRNA in vitro. […] Human primer probe set RTS3559 was used to measure mRNA levels. AR mRNA levels were adjusted according to total RNA content, as measured by RIBOGREEN®. […] A total of 385 oligonucleotides were tested.

[3] = Table 25, 1,000 nM oligonucleotide, electroporation, approximately 24 hours, relative to untreated control

Substance | percent inhibition of AR, 46.9 nM ([1]; Table 31) | percent inhibition of AR, 187.5 nM ([1]; Table 31) | percent inhibition of AR, 750.0 nM ([1]; Table 31) | percent inhibition of AR, 3000.0 nM ([1]; Table 31) | IC50 ([1]; Table 31) | percent inhibition of AR, 46.9 nM ([1]; Table 36) | percent inhibition of AR, 187.5 nM ([1]; Table 36) | percent inhibition of AR, 750.0 nM ([1]; Table 36) | percent inhibition of AR, 3000.0 nM ([1]; Table 36) | IC50 ([1]; Table 36) | % inhibition [2, 3] | also measured
583713 (antisense kA*kT*k[5mC]*d[5mC]*dT*dT*dG*dA*dG*d[5mC]*dT*dT*dG*kG*k[5mC]*kT) [compound 583713] | 29% | 51% | 67% | 74% | 220 nM |  |  |  |  |  |  | % inhibition ([2]; 500 nM ASO, ~24 h, Table 18): 36%
583660 (antisense kG*kA*k[5mC]*dA*d[5mC]*dA*d[5mC]*dG*dG*dT*dG*dG*dA*k[5mC]*kA*kA) [compound 583660] |  |  |  |  |  |  |  |  |  |  |  | percent inhibition of AR, 46.9 nM ([1]; Table 29): 21%; percent inhibition of AR, 187.5 nM ([1]; Table 29): 39%; percent inhibition of AR, 750.0 nM ([1]; Table 29): 61%; percent inhibition of AR, 3000.0 nM ([1]; Table 29): 72%; IC50 ([1]; Table 29): 420 nM; % inhibition ([2]; 500 nM ASO, ~24 h, Table 17): 44%
583998 (k[5mC]*kA*kT*dG*d[5mC]*d[5mC]*dG*d[5mC]*d[5mC]*dA*dG*dG*dG*kT*kA*k[5mC]; antisense) [compound 583998] |  |  |  |  |  |  |  |  |  |  |  | percent inhibition of AR, 46.9 nM ([1]; Table 34): 4%; percent inhibition of AR, 187.5 nM ([1]; Table 34): 25%; percent inhibition of AR, 750.0 nM ([1]; Table 34): 38%; percent inhibition of AR, 3000.0 nM ([1]; Table 34): 70%; IC50 ([1]; Table 34): 890 nM; % inhibition ([2]; Table 22, 500 nM oligonucleotide, electroporation, approximately 24 hours, relative to untreated control): 45%
583790 (antisense kG*kT*kT*dG*d[5mC]*dA*dT*dG*dG*dT*dG*d[5mC]*dT*kG*kG*k[5mC]) [compound 583790] | 17% | 42% | 65% | 81% | 320 nM |  |  |  |  |  |  | % inhibition ([2]; Table 19, 500 nM oligonucleotide, electroporation, approximately 24 hours, relative to untreated control): 39%
584245 (kA*kG*kG*dT*dT*dA*dG*dG*dG*dA*dG*dT*dA*kG*kG*k[5mC]; antisense) [compound 584245] |  |  |  |  |  | 4% | 33% | 69% | 90% | 320 nM | 70% | 
584274 (kG*kT*kT*dA*dT*d[5mC]*dT*dT*dA*d[5mC]*dT*d[5mC]*dT*k[5mC]*k[5mC]*k[5mC]; antisense) [compound 584274] |  |  |  |  |  | 17% | 36% | 74% | 93% | 230 nM | 70% | 
